From EP0830890A1, “Surfactants for use in liquid/supercritical CO2” (AIR PRODUCTS AND CHEMICALS, INC., priority 1996, dated 1998)

Experiments:
Type in all cases: physicochemical
[1] = Solubility in CO2 by cloud point determination in a variable volume view cell; set-up: unit not given here; conditions: Surfactant Concn. in CO2 0.2486 wt%; 65°C
[2] = Interfacial tension of a PEG 600 drop in CO2/surfactant solution via pendant drop technique; conditions: PEG (600) drop, 2 weight % Surfynol/CO2 solution
From the text: Interfacial activity can be monitored using the 'pendant drop' technique, ("Chemistry of Interfaces" M.J.Jaycock & Parfitt, John Wiley and Sons, New York p49-51). This method is utilized to measure the interfacial tension between a pendant drop and a continuous phase that surrounds the drop. When carbon dioxide is used as the continuous media, special high pressure equipment with sapphire view ports is required to maintain a solution of CO2 and surfactant, and to study the change in shape of the pendant drop for interfacial tension calculations. A general procedure for these high pressure phase behavior measurements may be found in Langmuir, vol. 10 1994, pg 3536-3541, by K. Harrison, K. P. Johnston, J. Goveas and E. A. O ? Rear.
Various ethoxylates of 2,4,7,9-tetramethyl-5-decyn-4,7-diol were used in the interfacial tension study. Table 3 gives the interfacial tension observed for ethoxylates of 2,4,7,9-tetramethyl-5-decyn-4,7-diol containing 20, 40, and 65 wt% ethylene oxide. The table also gives the interfacial tension of the polyethyleneglycol (PEG 600)drop within the pure CO2 media. […] It is interesting to note the actual reduction in interfacial tension. For a control PEG 600 drop at 2510 psi the interfacial tension was measured to be 3.39 dyne/cm (run #5in Table 3). […] This corresponds to lowering the interfacial tension by 0.54 dyne/cm, a 16% reduction. A surfactant/CO2 solution of 2 weight % (using the 40 wt% ethoxylated Surfynol surfactant) gave an interfacial tension of 1.57 dyne/cm. at a CO2 pressure of 4030 psi (run #33in Table 3). The corresponding PEG drop at 4093psi used as the control gave an interfacial tension of 1.92dyne/cm (run #18 in Table 3).

[3] = Solubility in CO2 by cloud point determination in a variable volume view cell; set-up: Pressure Describing Cloud Point Determinations For Surfactant/CO2 Concentrations / Pressure Describing Cloud Point Determinations For Surfactant/CO2Concentrations: unit not given here
Method: In the following examples, mixtures of acetylenic alcohols or diols and CO2 were prepared by adding the acetylenic alcohol or diol to a stainless steel variable volume view cell equiped with suitable relief devices, high pressure valves CO2 inlet and outlet and a sapphire window at one end. A high pressure syringe pump (High Pressure Products, HIP pump) was filled with liquid CO2 and used to quantitiatively add CO2 to the pressure vessel. The pressure vessel contained a magnetic stirrer and was stirred via a magnetic couple to a magnet located below the vessel.
A weighed amount of surfactant (0.5-10 weight %) was placed inside the cell chamber in front of the piston. The cell window was attached and 10 cc ? s of CO2, was added to the cell. The surfactant was mixed in the CO2 using a magnetic stirring bar. The cell was mounted in horizontally and then immersed in a water bath. After allowing the high pressure cell to attain thermal equilibrium the pressure within the cell was varied using a floating piston. The pressure was changed to monitor the cloud point as being indicative of insolubility. The operator viewed the floating piston through the sapphire window using a suitable optic device, the onset of insolubility was taken when the translucent solution changed to an orange/brown color due to the Tindall light scattering of the insoluble droplets. The onset of insolubility was checked several times by varying the pressure using the high pressure syringe pump.
A water bath was used to vary the temperature for each concentration. On completing the solubility studies at one concentration and one temperature series, a calibrated injector loop attached to the high pressure cell was filled with the surfactant via a syringe. Utilizing a six way valve to help inject this fixed amount of surfactant, the surfactant concentration within the high pressure cell was increased by a fixed increment. The solubility studies for this new CO2/surfactant concentration were measured at various temperatures in a similar manner to that previously described.

Pressure Describing Cloud Point Determinations For Surfactant/CO2Concentrations [1]: 2800
Interfacial Tension IFT ([2]; 3599 psi (248 bar)): 1.95 dyne/cm
Interfacial Tension IFT ([2]; 3628 psi (250 bar)): 1.99 dyne/cm
Interfacial Tension IFT ([2]; 3995 psi (276 bar)): 1.73 dyne/cm
Interfacial Tension IFT ([2]; 3998 psi (276 bar)): 1.66 dyne/cm
Interfacial Tension IFT ([2]; 4505 psi (311 bar)): 1.51 dyne/cm
Interfacial Tension IFT ([2]; 4508 psi (311 bar)): 1.57 dyne/cm
Pressure Describing Cloud Point Determinations For Surfactant/CO2Concentrations ([3]; Surfactant Concn. in CO2 0.2486 wt%, 25°C): 1440
Pressure Describing Cloud Point Determinations For Surfactant/CO2Concentrations ([3]; Surfactant Concn. in CO2 0.2486 wt%, 35°C): 1920
Pressure Describing Cloud Point Determinations For Surfactant/CO2Concentrations ([3]; Surfactant Concn. in CO2 0.2486 wt%, 60°C): 2690
Pressure Describing Cloud Point Determinations For Surfactant/CO2Concentrations ([3]; Surfactant Concn. in CO2 0.8867 wt%, 35°C): 4020
Pressure Describing Cloud Point Determinations For Surfactant/CO2Concentrations ([3]; Surfactant Concn. in CO2 0.8867 wt%, 45°C): 4590
Pressure Describing Cloud Point Determinations For Surfactant/CO2Concentrations ([3]; Surfactant Concn. in CO2 0.8867 wt%, 60°C): 5270
Pressure Describing Cloud Point Determinations For Surfactant/CO2Concentrations ([3]; Surfactant Concn. in CO2 0.8867 wt%, 65°C): 5470
CO2 solubility (in words) ([3]; in CO2): poor CO2 solubility
Substance: Ethoxylated 2,4,7,9-Tetramethyl-5-decyn-4,7-diol [AP-465]
